US9006426B2, “Squaric acid derivatives as inhibitors of the nicotinamide” (Topotarget A/S, priority 2008, dated 2015)

Tested on: A2780 cells
Assay: In vitro cell proliferation assay (SRB assay)
Format: cell-based
Settings: Homo sapiens, 72 h incubation, SRB staining
Experimental: In Vitro Cell Proliferation Assay (SRB Assay)
A2780 cells were seeded in 96-well plates at 2000 cells/well in 100 μL of culture medium, 4 wells were left empty for media only controls.
After 24 h the compound titrations were performed, in a separate dilution plate, by serially diluting the compounds of general formula (I) in culture medium. A 100 μL of each dilution was added to the plated cells, this was done in quadruplicate, and controls (e.g. DMSO and blanks) were included. The plates were incubated for 72 h at 37° C. in a CO2 incubator. 50 μL cold 50% trichloroacetic acid was then added to each well. After 1 h the supernatant was discarded and the wells were washed 5 times with tap water and dried at room temperature. […] Bound stain was subsequently solubilized by addition of 200 μL 10 mM Tris pH 10.5 to each well, and the plates were shaken for at least 30 minutes, and the absorbance read on an automated plate reader at 515 nm. Using the nine absorbance measurements [time zero, (Tz), control growth, (C), and test growth in the presence of drug at the seven concentration levels (Ti)], the percentage growth is calculated at each of the drug concentrations levels after averaging the quadruplet wells. Percentage growth inhibition is calculated as: [(Ti−Tz)/(C−Tz)]×100 for concentrations for which Ti>/=Tz [(Ti−Tz)/Tz]×100 for concentrations for which Ti<Tz. […]

SMILES: O=c1c(NCCCCCCOc2ccc(Cl)cc2)c(Nc2ccncc2)c1=O [SQ-7B, 3-(6-(4-chlorophenoxy)hexylamino)-4-(pyridine-4-ylamino)-cyclobut-3-ene-1,2-dione]
- IC50: 40 nM
